Source: patent US20050176685A1 (priority 2002, published 2005)

Legend:
[1] = 50 micrograms equivalent to about 70 micrograms (2800 IU) of vitamin D3; cited from earlier work
vitamin D receptor = biological target: T1, vitamin D receptor (Homo sapiens, UniProt P11473); details: compared with 1α,25-dihydroxy-cholecalciferol; cited from earlier work
T1 sequence (P11473 1-427): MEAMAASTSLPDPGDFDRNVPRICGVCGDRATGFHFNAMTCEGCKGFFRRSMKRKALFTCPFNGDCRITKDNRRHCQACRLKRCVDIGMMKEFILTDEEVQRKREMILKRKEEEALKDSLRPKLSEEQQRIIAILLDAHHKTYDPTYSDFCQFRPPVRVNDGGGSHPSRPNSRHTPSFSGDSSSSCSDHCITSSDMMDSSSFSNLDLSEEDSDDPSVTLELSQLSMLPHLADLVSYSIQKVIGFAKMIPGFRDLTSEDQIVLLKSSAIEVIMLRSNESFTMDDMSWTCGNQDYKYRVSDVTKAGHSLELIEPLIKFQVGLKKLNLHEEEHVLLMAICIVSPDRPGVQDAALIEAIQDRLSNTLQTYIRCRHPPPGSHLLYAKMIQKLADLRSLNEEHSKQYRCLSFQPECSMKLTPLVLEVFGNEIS

SMILES: C=C1CC[C@H](O)C/C1=C/C=C1\CCC[C@]2(C)[C@@H]([C@H](C)CCCC(C)(C)O)CC[C@@H]12 [25-hydroxy-cholecalciferol]
- Potency relative to vitamin D3 [1]: about 1.4 times
- Intrinsic activity relative to 1α,25-dihydroxy-cholecalciferol (vitamin D receptor): about 100 fold lower

SMILES: NCCCC(O)(P(=O)(O)O)P(=O)(O)O [alendronate, 4-Amino-1-hydroxybutylidene-1,1-bisphosphonic acid monosodium trihydrate]
- Progression of vertebral deformity (compared to placebo patients): statistically significant decrease
- Decrease in the risk of vertebral fractures (compared to placebo, statistically significant, patients with fractures): at least 40%
- Reduction in vertebral fracture rate per 100 patients (total number of vertebral fractures, compared to placebo): at least 50%
